Reference: patent US11426422B2, “SHP2 inhibitors and methods of use thereof” (Research Development Foundation, priority 2018, dated 2022)

Legend:
HFD-fed mice [1] = assay: glucose tolerance test in HFD-fed mice; type: in vivo; conditions: 60 mg/kg daily oral gavage for 6 days; male mice fed HFD 5 weeks; 14 h fasted
Method: (§1) (FIG. 3A) Glucose tolerance test in 14 h fasted male mice fed a HFD for 5 weeks. […] At 1 day after drug treatment, glucose tolerance test was performed. Mean±SEM. (FIG. 3B) Insulin tolerance test of mice treated as described in FIG. 3A. Mean±SEM. […] The liver sections were stained with anti-IR (red) and DAPI (blue). Scale bars, 5 μm. (FIG. 3D) Quantification of the ratios of PM and IC IR signals of the livers in C (mean±SD; *p<0.0001). […] Cell lysates were blotted with the indicated antibodies.
(§2) The IR staining at the PM in liver sections from mice fed with HFD was weak, and insulin stimulation further reduced it and caused IR endocytosis (FIGS. 3C and D).
(§3) All animals were maintained in a specific antigen-free barrier facility with 12 h light/dark cycles (6 AM on and 6 PM off). Mice were fed a standard rodent chow (2016 Teklad Global 16% protein rodent diet, Harlan Laboratories). […] For glucose tolerance test, mice were fasted for 14 h, and their blood glucose levels (T=0) were measured with tail bleeding using a glucometer (AlphaTRAK®). […] Blood glucose levels were measured at 15, 30, 60, and 120 min after glucose injection. For insulin tolerance test, mice fasted for 4 h were injected intraperitoneally with recombinant human insulin (Eli Lilly) at 1 U/kg body weight, and their blood glucose levels were measured at 0, 15, 30 and 60 min after injection.

IR in liver sections = assay: IR staining at the PM in liver sections of HFD-fed mice; type: in vivo; conditions: 60 mg/kg oral for 6 days
Method: as §1, §2
The fixation, histological analysis, and immunohistochemistry of mouse tissues were performed as described previously (Choi et al., 2016). For human patient sample analysis, the deparaffinized sections were subjected to antigen retrieval with 10 mM sodium citrate (pH 6.0), incubated with 0.3% H2O2, blocked with 0.3% BSA, and then incubated first with anti-IR (CT3, Millipore®, 1:100) and anti-ZO1 (Thermo Scientific®, 1:200) antibodies and then with secondary antibodies (AlexaFluor® 568 goat anti-mouse and AlexaFluor® 488 goat anti-rabbit; Molecular Probes®). […] The total cell numbers and numbers of IR PM-positive cells were counted at least twice for individual images. Over 100 cells were analyzed for each patient samples. […]

primary hepatocytes = assay: insulin signaling in primary hepatocytes (quantitative Western blot); type: cell-based, mice; conditions: 10 μM for 2 h, then 100 nM insulin
Method: as §1
To examine the effect of SHP2 inhibition on insulin signaling in freshly isolated primary hepatocytes, the activating phosphorylation of IR (pY1189/1190), AKT (pT308), and ERK1/2 (pT202/Y204, pERK1/2) in the hepatocytes was monitored (FIG. 3E and FIG. 8B).
Primary hepatocytes were isolated from 2-month-old female mice with a standard two-step collagenase perfusion procedure. Cells were plated on collagen-coated dishes and incubated in attachment medium (Williams' E Medium supplemented with 5% (v/v) FBS, 10 nM insulin, 10 nM dexamethasone, and 1% (v/v) penicillin/streptomycin). After 2-4 h, the medium was changed to low-glucose DMEM supplemented with 5% (v/v) FBS, 10 nM dexamethasone, 10 nM insulin, 100 nM triiodothyronine, and 1% (v/v) penicillin/streptomycin.
Cells were incubated with the cell lysis buffer [50 mM HEPES (pH 7.4), 150 mM NaCl, 10% (v/v) Glycerol, 1% (v/v) Triton X-100, 1 mM EDTA, 100 mM sodium fluoride, 2 mM sodium orthovanadate, 20 mM sodium pyrophosphate, 0.5 mM dithiothreitol (DTT), 2 mM phenylmethylsulfonyl fluoride (PMSF)] supplemented with protease inhibitors (Roche®) and PhosSTOP™ (Roche®) on ice for 1 h. The cell lysates were cleared by centrifugation and incubated with antibody-conjugated beads. The beads were washed, and the bound proteins were eluted with the SDS sample buffer and analyzed by SDS-PAGE and Western blotting. For quantitative Western blots, anti-rabbit immunoglobulin G (IgG) (H+L) (Dylight 800 or 680 conjugates) and anti-mouse IgG (H+L) (Dylight 800 or 680 conjugates) (Cell Signaling) were used as secondary antibodies. […]

HFD-fed mice [2] = assay: insulin tolerance test in HFD-fed mice; type: in vivo; conditions: 60 mg/kg daily oral gavage for 6 days; male mice fed HFD 5 weeks; insulin 1 U/kg
Method: as §1, §2, §3

`CC1(N)CCN(c2cnc(-c3cccc(Cl)c3Cl)c(N)n2)CC1` [SHP099] was tested. Which glucose tolerance (HFD-fed mice [1]) did it give?
Its glucose tolerance is “markedly increased glucose tolerance”.

What about the “insulin-activated IR endocytosis in liver” value (IR in liver sections; 5 U insulin via inferior vena cava) of the same molecule?
The value was “blocked insulin-activated IR endocytosis”.

What about the “IR signal at the PM in liver” value (IR in liver sections; in the absence of insulin) of the same molecule?
Its value is “elevated the IR signal at the PM”.

And the “activation of the MAPK pathway by insulin (pERK1/2)” value (primary hepatocytes)?
The value was “inhibited the activation of the MAPK pathway by insulin”.

And the “insulin-triggered activating phosphorylation of AKT (pT308)” value (primary hepatocytes)?
The value was “significantly increased and prolonged”.

What about the “insulin-triggered activating phosphorylation of IR (pY1189/1190)” value (primary hepatocytes) of the same molecule?
The value was “significantly increased and prolonged”.

What about the insulin sensitivity (HFD-fed mice [2]) of the same molecule?
The insulin sensitivity was “markedly increased”.
